From patent US20140018552A1, “USE OF COMPOUNDS ISOLATED FROM MORUS BARK” (Dong Wha Pharm. Co., Ltd., priority 2011, published 2014) come the findings set out here.

Structures are written as SMILES. ≈ marks a conversion by molar mass, not a printed value.

For this test, the system named is AGE production. As to the kind of experiment: Assay of inhibition effect on AGE production (BSA with fructose and glucose, fluorescence analysis). It is filed as biochemical, bovine. To be noted: 10 mg/ml BSA, 0.2 M fructose and glucose, 37° for 7 days; fluorescence Ex 360 nm/Em 465 nm; average ± standard deviation. As to the method: After preparing 10 mg/ml bovine serum albumin (BSA) dissolved in 50 mM of phosphate buffer (pH 7.4), AGE production was induced by culturing the mixture of 0.2 M of fructose and glucose at 37 °C for 7 days. The compounds extracted from Morus Bark and prepared from Example 1 to 8 was handled in the concentration of 0.1 μg/Ml respectively. (All the compounds were dissolved in 100% of ethanol.) Pyridoxamine known for AGE inhibitor was used as a positive control group. AGE production was induced by using only fructose and glucose to BSA culturing at 37 °C for 7 days. It was handled in the concentration of 0.1 μg/Ml to 1000 μg/Ml.
After 7 days, the amount of AGE produced in culture medium was measured by using microplate reader (Excitation: 360 nm, Emission: 465 nm, fluorescence analysis).
The rate of inhibiting the production was counted by the following numerical formula. […] Also, the average and standard deviation of IC50 value were calculated from at least 3 independent experiments.
The rate of inhibiting the production (%)=100−(Fluorescence intensity of Experimental group−Fluorescence intensity of Reference)/(Fluorescence intensity of Control group−Fluorescence intensity of Control-Reference)×100
`CC1=C[C@H]2c3c(O)cc(-c4cc5ccc(O)cc5o4)cc3O[C@@]3(c4ccc(O)cc4O)Oc4cc(O)ccc4[C@H](C1)[C@@H]23` [Example. 1, Mulberrofuran G]: 79.5 ± 19.4 µM corresponded to half-maximal inhibition (IC50) and the “IC50 value” amounted to 44.7 ± 10.9 µg/mL (≈ 79.5 µM).
On the same counts, the results for `CC12CC(c3ccc(O)cc3O1)C13OC1(c1ccc(O)cc1O)Oc1cc(/C=C/c4ccc(O)cc4O)cc(O)c1C3C2=O` (centres unmarked) [Example. 4, Kuwanon Z] are 46.1 ± 11.8 µM and 27.4 ± 7.0 µg/mL (≈ 46.1 µM).
On the same counts, the results for `Oc1cc(O)cc(/C=C/c2ccc(O)cc2O)c1` [Example. 5, Oxyresveratrol] are 19.3 ± 4.1 µM and 4.7 ± 1.0 µg/mL (≈ 19.2 µM).
On the same counts, the results for `O=C1CC(c2ccc(O)cc2O)Oc2cc(O)cc(O)c21` (centres unmarked) [Example. 6, 2′,4′,5,7-tetrahydroxyflavanone] are 96.2 ± 10.1 µM and 27.7 ± 2.9 µg/mL (≈ 96.1 µM).
Consider `CC(C)(O)CCc1c(-c2ccc(O)cc2O)oc2cc3c(c(O)c2c1=O)C=CC(C)(C)O3` [Example. 7, Morusignin L], for which the IC50 (usually the point on the concentration scale where inhibition reaches its midpoint) turned out to be 160 ± 16.7 µM and the “IC50 value” was 70.1 ± 7.3 µg/mL (≈ 160 µM).
Consider `O=C1c2c(O)cc(O)cc2OC(c2ccc(O)cc2O)C1O` (centres unmarked) [Example. 8, Dihydromorin], for which the IC50 stood at 81.9 ± 3.3 µM and the “IC50 value” worked out at 24.9 ± 1.0 µg/mL (≈ 81.8 µM).
On the same counts, the results for `Cc1ncc(CO)c(CN)c1O` [Pyridoxamine, reference compound] are 747 ± 213 µM and 125.7 ± 35.8 µg/mL (≈ 747 µM).
